In patent US7652050B2, “Methods for increasing the survival of aquatic animals infected with an aquatic virus” (Laboratorio de Siagnóstico GAM S.A, priority 2001, dated 2010):
Values after ≈ are worked out from the molar mass of the structure shown. “Also recorded” adds a separate entry of the source. Read-outs that look alike come from different tables or passages of the source.

Legend:
in vitro = settings: Chinook salmon
IPNV genomic RNA = type: cell-based, infectious pancreatic necrosis virus (IPNV)
IPNV particles = type: cell-based, infectious pancreatic necrosis virus (IPNV); settings: acivicin 25 and 70 μg/ml, 24 and 48 h.p.i.
IPNV [1] = experiment: Modified viral plaque inhibition assay with pre-incubation of virus (virus cell entry); type: cell-based, infectious pancreatic necrosis virus (IPNV); settings: for EC50: Infectious pancreatic necrosis virus
Method: Compounds derived from isoxazol are assayed for their ability to inhibit viral entry into the cell. To determine if acivicin blocks the entry of IPNV, a modified viral plaque inhibition assay was conducted. […] Control viral samples were not pre-incubated with acivicin. […] Overnight incubation of the virus in acivicin increased the ability of the isoxazol compound to inhibit viral plaques by 38 percent.

IPNV [2] = experiment: Survival of IPNV-infected Atlantic salmon fry treated with acivicin by immersion; type: in vivo
[3] = Uninfected Atlantic salmon fry treated with acivicin (toxicity control); type: in vivo; settings: uninfected fish treated with 14 μg/ml acivicin
Method: Starting nine days post-infection (day 9), surviving fish are divided into four groups of forty fish each and treated with 0, 7.0, 10.8, or 14.0 μg/ml of acivicin by immersion in a 2 hour daily bath containing […]. One group corresponded to untreated fish, and the other three groups corresponded to fish groups treated with different concentrations of acivicin. As a negative control, there were two groups of 40 healthy fish in each; one group corresponded to an uninfected fry administered 14 μg/ml of acivicin while the other group was not infected or administered acivicin. Daily treatment in acivicin continued through day 21 post-infection (day 21). The fish were followed for 36 days post-infection to detect and document mortality.

IPNV [4] = experiment: Survival of naturally infected rainbow trout fry treated with acivicin; type: in vivo, rainbow trout (Onchorhynchus mykiss)
Method: FIG. 4 is a graph showing the effect of acivicin treatment on the survival of rainbow trout fry naturally infection with IPNV. The fish were followed for 30 days starting at day one of the acivicin treatments, to detect and document deaths. The data are presented in terms of percent survival: • ●---●: untreated naturally infected fish, positive control. • σ--σ: naturally infected fish treated with 9 μg/ml of Acivicin.
Acivicin was tested in vivo on thirty rainbow trout (Onchorhynchus mykiss). […] The fish were followed for 30 days following the first day of the acivicin treatments. Deaths were documented and presented in terms of percent survival. Results from methods assessing the effect of acivicin treatment on the survival of the trout fry naturally infected are shown in the graph at FIG. 4. Thirty days after the acivicin administration began, 90% of the trout fry had survived , while only 30% of the untreated control group had survived the same 30 day period. […] By contrast, in the untreated fish group, deaths continued during the first 25 days of the observation period.

Stability in solution = type: physicochemical
reovirus = settings: Balb/c cells; Keast et al. (1992); cited from earlier work
IPNV [5] = settings: at 100 to 300 μg/ml; cited from earlier work
IPNV strain VR-299 [6] = settings: cited from earlier work
IPNV [7] = settings: cited from earlier work
IPNV strain VR-299 [8] = experiment: Virus plaque inhibition assay; type: cell-based; settings: Infectious pancreatic necrosis virus, CHSE-214, 72 h, read-out: EC50, effective antiviral concentration required to inhibit IPNV plaque formation by 50%
IPNV [9] = experiment: Survival of IPNV-infected Atlantic salmon fry treated with neomycin by immersion; settings: neomycin 10, 40 and 80 ppm, 1 hour daily bath through day 23
[10] = acivicin 25 and 70 μg/ml, 24 and 48 h.p.i.

Nc1ncnc2c1ncn2CC(O)C(=O)O (centres unmarked) [AHPA, 3-adenine-9-yl-2-hydroxypropanoic acid]
CC50 at 3 days (in vitro): 75 µg/mL (≈ 336 µM)

N[C@H](C(=O)O)[C@@H]1CC(Cl)=NO1 [Acivicin, L (alpha S, 5S)-alpha-amino-3-chloro-4.5-dihydro-5-isoxazolacetic acid]
Effect on IPNV genomic RNA synthesis (IPNV genomic RNA; [10]): did not inhibit
Effect on IPNV particle formation (IPNV particles): inhibits the formation of IPNV viral particles
EC50, virus samples pre-incubated 2 hours, versus not pre-incubated (IPNV [1]; 2 hours pre-incubation): not significantly different
EC50 (IPNV [1]; no pre-incubation, read-out: EC50, virus samples without pre-incubation): 4 µg/mL (≈ 22.4 µM)
EC50 (IPNV [1]; pre-incubation with 1 to 6 μg/ml acivicin overnight, read-out: EC50, virus samples pre-incubated overnight with acivicin): 2.5 µg/mL
Deaths after acivicin treatments were terminated (IPNV [2]; days 21-36, all three treated groups, untreated infected deaths reached 54 percent): no deaths observed
Day post-treatment by which deaths stopped completely (IPNV [2]; each of the treated groups, treatment began day 9 post-infection): ≤ 10 day post-treatment
Mortality rate (accumulated deaths) (IPNV [2]; infected fish, 7.0 μg/ml acivicin, 2 hour daily bath from day 9 to 21 post-infection, untreated infected 30%): 30%
Survival (IPNV [2]; infected fish, 10.5 μg/ml acivicin): 92%
Accumulated deaths (IPNV [2]; infected fish, 10.5 μg/ml acivicin, 2 hour daily bath from day 9 to 21 post-infection): 8%
Survival (IPNV [2]; infected fish, 14 μg/ml acivicin): 89%
Mortality (IPNV [2]; infected fish, 14 μg/ml acivicin, 2 hour daily bath from day 9 to 21 post-infection): 11%
Toxicity in fish [3]: not toxic in fish
Day of treatment by which all deaths occurred (IPNV [4]; 9 μg/ml acivicin, 15 day protocol, untreated deaths continued 25 days): ≤ 12 days
Survival thirty days after administration began (IPNV [4]; fry 1.0±0.4 g, 9 μg/ml acivicin, daily bath of two hours, 15 days, untreated control 30%): 90%
Survival (IPNV [4]; fry of approximately 0.8 g, treated 12 days with 9 μg/ml acivicin): 98%
Stability in solution (Stability in solution): stable in solution
Concentration inhibiting reovirus replication (reovirus): 0.1 µg/mL
CC50 (in vitro): > 100 µg/mL
Effect on IPNV polypeptide synthesis (IPNV polypeptides; [10]): did not inhibit

Nc1ncnc2c1ncn2C[C@H](O)CO [DHPA, (S)-9-(2.3-dihydroxypropyl) adenine]
Cytotoxicity in RTG-2 cells (IPNV [5]): without presenting cytotoxicity

C#Cc1c(C(N)=O)ncn1[C@@H]1O[C@H](CO)[C@@H](O)[C@H]1O [EICAR, 5-ethynyl-1-β-ribofuranosylimidazole-carboxamide]
EC50 for IPNV (IPNV strain VR-299 [6]; Jashés et al., Antiviral Res. 29:309 (1996)): 0.01 µg/mL
Deaths among experimentally IPNV-infected fry (IPNV [7]; rainbow trout and Coho salmon fry, given first day after infection, Moya et al. (2000)): fewer deaths occurred among the infected fry

COc1c(C)c2c(c(O)c1C/C=C(\C)CCC(=O)O)C(=O)OC2 [Myconhenolic Acid, 6-(4-hydroxy-6-methoxy-7-methyl-3-oxo-5-phthalanyl)-4-methyl-4-hexenoic acid]
EC50 (IPNV strain VR-299 [8]): 0.5 µg/mL (≈ 1.56 µM)
CC50 at 3 days (in vitro): > 50 µg/mL

NC(=O)c1ncn([C@@H]2O[C@H](CO)[C@@H](O)[C@H]2O)n1 [Ribavirin]
Inhibition of IPNV replication in vitro (IPNV strain VR-299 [6]; Migus et al. (1980)): inhibit IPNV replication in vitro; also recorded: efficiently inhibits IPNV replication in vitro
Efficacy against IPNV in vivo (IPNV [7]; Migus et al. (1980), Savan et al. (1980)): no efficacy in vivo

neomycin
Effect on IPNV genomic RNA synthesis (IPNV genomic RNA; neomycin 4 mg/ml added 1, 3, 5, 7 h.p.i., harvest 24 h.p.i.): inhibited the IPNV RNA synthesis
Mortality outbreak, treatment from day thirteen post-infection (IPNV [9]): stop the mortality outbreak immediately
Mortality outbreak, treatment from day thirteen post-infection (IPNV [9]; listed as neomycin): stopped dying immediately
Effect on IPNV polypeptide synthesis (IPNV polypeptides; neomycin 4 mg/ml added 1, 3, 5, 7 h.p.i., 24 h.p.i.): does not inhibit IPNV polypeptide synthesis
